# Patent publication US20200407700A1, “COMPOSITIONS OF PARP14 MODULATORS AND/OR MUTANTS AND THERAPEUTIC USE THEREOF” (President and Fellows of Harvard College, priority 2018, published 2020)
# “Also recorded” adds a separate entry of the source.
# Assays:
# [1] = system: bone marrow derived macrophages (BMDMs); assay: NAD^+ levels in LPS-treated bone marrow derived macrophages (enzyme-coupled luciferase assay); assay type: cell-based, mouse; conditions: for LPS-induced drop in NAD^+ levels / protection of NAD^+ levels in macrophages exposed to LPS: BMDMs; for LPS-induced drop in NAD^+ levels: 6 hours of treatment, in the presence of LPS
# Text: FIG. 2 contains 13 panels, 2A-2M, depicting that PARP14 is necessary for LPS-induced NAD^+ destruction. FIG. 2A-2C show NAD^+ levels in response to LPS in wild-type or (FIG. 2A) CD38KO, (FIG. 2B) SARM1KO, and (FIG. 2C) PARP1KO BMDMs. […] FIGS. 2K and 2L show NAD^+ (2K) and NADH levels (2L) in PARP14KO BMDMs.
# FIG. 3 contains 6 panels, 3A-3F, depicting PARP14 catalytic mechanism. […] FIG. 3E depicts NAD^+ levels after treatment with NSC-61610. FIG. 3F depicts NAD^+ levels after treatment with NSC-127133 and LPS.
# NAD^+ levels rapidly decline upon LPS-activation in bone marrow derived macrophages (BMDMs). […] NAD^+ and NADH levels recover after about 24 hours (FIG. 1A-1B). […] Using a genetically-encoded fluorescent reporter in RAW264.7 immortalized macrophages (FIG. 1C), it was confirmed that these changes occur in all three major compartments of the cell. Mass spectrometry-based metabolomics in BMDMs were performed which confirmed that an increase in NAD^+ hydrolysis is driving the phenomenon (FIG. 1D-1E). Additional experiments using flux metabolomics in collaboration with Professor Marie Migaud at the University of South Alabama may be used in order to determine the rates of consumption and salvage of NAD^+, before and after treatment with LPS. In such experiments, isotopically-labeled NMN (an NAD^+ precursor) are synthesized with labels on the phosphate, ribose, and nicotinamide groups, which allows tracing of multiple downstream metabolites.
# elderly mice = conditions: cited from earlier work
# [2] = system: secretion of IL-1β, IL-18, IL-6 and TNF; assay: Cytokine secretion in response to LPS and nigericin; assay type: cell-based
# Text: (§1) FIG. 4 contains 5 panels, 4A-4E, depicting that NAD^+ decline promotes inflammasome activation. FIG. 4A-4D show secretion of (FIG. 4A) IL-1β, (FIG. 4B) IL-18, (FIG. 4C) IL-6, and (FIG. 4D) TNF in response to LPS and nigericin, without and with NMN.
# IL-1β and IL-18 are unique cytokines in that they require activation of an inflammasome to be processed for release.
# BMDM = assay: Polar metabolomics on BMDM extracts; assay type: cell-based, mouse
# Description: (§2) Polar metabolomics on BMDM extracts treated with LPS, OUL35, and NRH were performed. […] Recently, Prof. Marcia Haigis (HMS) published that Sirt3, an NAD^+-sensor, regulates nucleotide metabolism (Gonzalez Herrera et al., 2018). While an increase in nucleotides could promote DNA synthesis, macrophages are reported to suppress the cell cycle in response to LPS. However, macrophages do upregulate reactive oxygen species (ROS) production for bactericidal purposes in response to LPS, and two purines—hypoxanthine and xanthine—are important for this ROS production via the enzyme xanthine oxidase (XO). With the hypothesis that macrophages increase these metabolites for increased ROS production in mind, PARPi and NRH suppress nigericin-induced ROS production, although this experiment must be repeated (FIG. 12O).
# [3] = system: inflammasome (caspase-1 cleavage); assay: Inflammasome activation measured by Caspase 1 cleavage (Casp-1 p20); assay type: cell-based; conditions: only somewhat reproducible
# Text: as §1
# One hallmark of inflammasome activation is cleavage of caspase-1 to generate a 20 kD peptide.
# LPS induced sepsis = assay: LPS-induced sepsis (I.P. injection of LPS); assay type: in vivo; conditions: mice
# Description: One common assay to measure inflammation in vivo is with LPS induced sepsis, whereby LPS is injected intraperitoneally, resulting in a lethal cytokine storm. Drugs or mutations that suppress inflammation increase survival. Mice euthanized 6 hours after LPS injection show in increase in PARP14 levels in multiple tissues (FIG. 13A-D). NAD^+ levels fall in multiple tissues, and in at least in spleen, NAD^+ levels can be protected with a co-injection of PARPi and NRH (FIG. 13E).
# [4] = system: reactive oxygen species (ROS) production; assay: Nigericin-induced ROS production in macrophages; assay type: cell-based; conditions: 30 min nigericin treatment; preliminary, must be repeated
# Description: as §2
# [5] = system: poly-ADP-ribose (PAR) levels; assay: Poly-ADP-ribose (PAR) levels in LPS-treated macrophages; assay type: cell-based; conditions: NAD+ repletion
# Text: NMN, which raises levels of NAD^+, can suppress secretion of IL-1β and IL-18. […] The most robust observation seen is a restoration of poly-ADP-ribose (PAR) levels (FIG. 11B). While this is clearly an effect of restoring NAD^+ levels, its significance on macrophage function is unclear. […] Inflammatory gene expression may be altered, but this must be repeated with an increased N-value (FIG. 11D-F).
# influenza = conditions: via a different mechanism; cited from earlier work
# spleen NAD+ levels = assay: NAD^+ levels in aged spleens after I.P. injection; assay type: in vivo; conditions: 27 month old mice, 20 mg/kg intraperitoneally, 2 hours post-injection
# Description: 27 month old mice were injected intraperitoneally with 20 mg/kg of OUL35 dissolved in PBS with 40% HP-beta-cyclodextrin and 1% carboxymethylcellulose. Spleens were collected 2 hours post-injection and assayed for NAD+ levels.
# PARP1 = PARP1 (Homo sapiens, UniProt P09874); conditions: cited from earlier work
# PARPs 4, 10, 14, and 16 = conditions: cited from earlier work
# Sequence of PARP1 (P09874 whole entry, species assumed): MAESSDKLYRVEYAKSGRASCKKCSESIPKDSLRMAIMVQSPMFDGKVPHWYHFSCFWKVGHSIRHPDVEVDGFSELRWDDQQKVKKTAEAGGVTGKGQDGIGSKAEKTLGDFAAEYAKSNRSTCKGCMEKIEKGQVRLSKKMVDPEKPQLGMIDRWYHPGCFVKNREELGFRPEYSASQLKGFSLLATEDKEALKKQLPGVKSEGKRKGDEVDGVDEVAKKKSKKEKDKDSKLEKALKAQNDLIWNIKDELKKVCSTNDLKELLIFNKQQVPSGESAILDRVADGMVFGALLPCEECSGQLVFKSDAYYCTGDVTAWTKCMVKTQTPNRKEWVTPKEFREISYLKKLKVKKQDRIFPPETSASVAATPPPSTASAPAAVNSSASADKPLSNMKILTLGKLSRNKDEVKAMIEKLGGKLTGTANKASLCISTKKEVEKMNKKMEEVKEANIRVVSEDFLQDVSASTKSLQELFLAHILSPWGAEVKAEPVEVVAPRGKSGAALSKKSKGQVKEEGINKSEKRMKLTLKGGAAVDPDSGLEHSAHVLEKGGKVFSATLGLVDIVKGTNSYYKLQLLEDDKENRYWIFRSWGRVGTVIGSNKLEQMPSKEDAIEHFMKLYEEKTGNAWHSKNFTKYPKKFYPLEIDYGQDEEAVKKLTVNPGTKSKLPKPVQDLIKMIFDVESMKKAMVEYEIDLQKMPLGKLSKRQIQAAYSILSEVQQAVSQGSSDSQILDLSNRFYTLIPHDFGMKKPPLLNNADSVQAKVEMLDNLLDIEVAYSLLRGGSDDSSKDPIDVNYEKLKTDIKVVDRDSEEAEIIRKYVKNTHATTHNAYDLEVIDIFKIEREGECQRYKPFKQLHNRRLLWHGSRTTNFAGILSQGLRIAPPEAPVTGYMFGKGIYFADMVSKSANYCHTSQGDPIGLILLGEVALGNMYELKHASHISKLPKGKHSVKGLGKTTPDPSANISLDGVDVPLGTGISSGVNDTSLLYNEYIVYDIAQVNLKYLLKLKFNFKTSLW
compound,measurement,setting,value
NC(=O)c1cccc(N)c1 [3-aminobenzimide],LPS-induced drop in NAD^+ levels,[1],completely blocked
same,"raise NAD^+ levels in activated macrophages, compared with NMN",[1],beyond NMN
"NC(=O)c1ccc[n+]([C@@H]2O[C@H](COP(=O)([O-])O)[C@@H](O)[C@H]2O)c1 [NMN, nicotinamide mononucleotide]",metabolism and aspects of ageing,elderly mice,improve metabolism and reverse aspects of ageing
same,secretion of IL-1β and IL-18,[2],suppress
same,secretion of IL-6 or TNF,[2],not
same,protection of NAD^+ levels in macrophages exposed to LPS,[1],slightly protect
"NC(=O)c1ccc[n+]([C@@H]2O[C@H](CO)[C@@H](O)[C@H]2O)c1 [NR, nicotinamide riboside]",metabolism and aspects of ageing,elderly mice,improve metabolism and reverse aspects of ageing
"NC(=O)C1=CN([C@@H]2O[C@H](CO)[C@@H](O)[C@H]2O)C=CC1 [NRH, Nicotinamide riboside hydride]",metabolite changes induced by LPS,BMDM,blunt the changes induced by LPS
same,cleavage of caspase-1 (inflammasome activation),[3],suppression of inflammasome activation
same,NAD^+ levels in spleen,"LPS induced sepsis; 6 hours after I.P. injection of LPS, co-injection",protected
same,survival,"LPS induced sepsis; I.P. injection of LPS, vs LPS alone",moderately increased survival
same,nigericin-induced ROS production,[4],suppress
same,poly-ADP-ribose (PAR) levels,[5],restoration
same,protection of NAD^+ levels in macrophages exposed to LPS,[1],protect; also recorded: more potent protectors
same,raising NAD^+ levels in BMDMs,"[1]; absence and presence of LPS, after 6 hours",extremely potent
CCOc1ccccc1Cl [NSC-61610],effect in a model of influenza,influenza,anti-inflammatory
same,LPS-induced drop in NAD^+ levels,[1],able to block the fall
same,"raise NAD^+ levels in activated macrophages, compared with NMN",[1],beyond NMN
O=C(O)c1ccccc1-c1ccccc1C(=O)Nc1ccc2c(c1)[nH]c(=O)c1ccccc12 [NSC-127133],LPS-induced drop in NAD^+ levels,[1],able to block the fall
same,"raise NAD^+ levels in activated macrophages, compared with NMN",[1],beyond NMN
NC(=O)c1ccc(Oc2ccc(C(N)=O)cc2)cc1 [OUL35],NAD^+ levels in aged spleens,spleen NAD+ levels,raises NAD^+ levels
same,metabolite changes induced by LPS,BMDM,blunt the changes induced by LPS
same,cleavage of caspase-1 (inflammasome activation),[3],suppress
same,activity against PARP1,PARP1,no activity
same,"inhibition of PARPs 4, 10, 14, and 16","PARPs 4, 10, 14, and 16",inhibitor
same,LPS-induced drop in NAD^+ levels,[1],blocked the drop
same,"raise NAD^+ levels in activated macrophages, compared with NMN",[1],beyond NMN
CN(C)CC(=O)Nc1ccc2[nH]c(=O)c3ccccc3c2c1 [PJ-34],cleavage of caspase-1 (inflammasome activation),[3],suppress
same,LPS-induced drop in NAD^+ levels,[1],completely blocked
same,"raise NAD^+ levels in activated macrophages, compared with NMN",[1],beyond NMN
